Test results reported in patent US20250093330A1, “METHOD AND DEVICE FOR DRUG SCREENING” (SHANGHAI LIDE BIOTECH CO., LTD., priority 2021, published 2025).
Entries after “also recorded” stand apart in the source; their conditions may differ.

Key:
Type in all cases: in vivo, human (patient-derived), mouse host
[1] = system: primary duodenal cancer cells; experiment: method of the present invention, drug screening on primary duodenal cancer cells from a patient; conditions: primary tumor tissue of duodenal ampullary tumor patient, FIG. 9
Source text: 4 to 5-week old female Nu/Nu mice was ordered from the supplier (purchased from Beijing Vital River Laboratory Animal Technology Co., Ltd.) and raised in SPF grade animal room. Before the experiment, the animal was adapted for at least three days. Freshly collected tumor samples obtained from surgery or from mouse PDX models containing tumor cells from patient were kept in a storage tube and transported to the laboratory on ice in the shortest possible time. After removing the non-tumor tissues and necrotic tissues in the biosafety cabinet, the tumor samples were cut into cubes of 1-3 mm^2, rinsed with HBSS. […] Collected cell suspension and centrifuged the suspension at 1000 rpm for 3 minutes to remove supernatant, and re-suspended in PBS containing 1% PBS; counted cell numbers and adjusted cell density to 1×10^8/ml. […] Counted the number of cells, and adjusted the cell density to 1-10×10^5/ml. […] 5-14 day after administration, the mice were killed and cell viability was detected by quantitative analysis of ATP by CellTiter-Glo luminescence in the modified polyvinylidene fluoride tubes. According to the viability of tumor cells in the control group, the percentages of cell viable proliferation (t/c %) in the experiment groups were calculated, and then the efficacy of the corresponding drugs was evaluated. […] The viability of the tumor cells was measured.

[2] = system: patient-derived gastric cancer cells in GAPF155; experiment: method of the present invention (implanted PVDF tube, CellTiter-Glo ATP viability), GAPF155 cells; conditions: FIG. 3
Description: (§1) The viability of the tumor cells was measured. Mouse PDX model GAPF155 was obtained by implanting primary gastric cancer cells into mice. After 2 months of feeding, patient-derived gastric cancer cells were obtained from GAPF155. The sensitivity of the patient-derived gastric cancer cells in GAPF155 to S-1 was detected by the traditional PDX method and the method of the present invention (FIG. 2 and FIG. 3).

[3] = system: patient-derived gastric cancer cells from GAPF157; experiment: traditional PDX method, mouse PDX model GAPF157; conditions: FIG. 4
Source text: (§2) The PDX model well maintains the biological characteristics the of primary tumor cells of a patient. The model is obtained by transplanting a fresh tumor tissue of a patient into an immune deficient mouse (e.g. a nude mouse or a severe combined immune deficiency (SCID) mouse). Such models maintain the genetic characteristics of the patient as well as tumor heterogeneity. Presently, the major difficulty of using PDX model for individualized precision medical treatment is the lengthy time period spent on modelling and sensitivity test, and the low success rate for modelling. For example, primary cell transplantation takes 2-3 months, and the drug sensitivity test takes 3-4 months. In addition, PDX modelling requires a high level of technical skills. Surgeons, histologists and researchers need to cooperate closely after the tumor sample is obtained from the patient. Therefore, how to improve the method for determining the sensitivity of tumor cells to an anti-tumor drug by using a PDX model becomes an urgent issue. The method for PDX mouse modelling is known in the art. […] The sensitivity of the patient-derived gastric cancer cells in GAPF155 to S-1 was detected by the traditional PDX method and the method of the present invention (FIG. 4 and FIG. 5).

[4] = system: patient-derived gastric cancer cells in GAPF155; experiment: traditional PDX method, mouse PDX model GAPF155; conditions: FIG. 2
Source text: as §2, with “(FIG. 2” for “(FIG. 4”, “FIG. 3).” for “FIG. 5).”

[5] = system: patient-derived gastric cancer cells from GAPF157; experiment: method of the present invention (implanted PVDF tube, CellTiter-Glo ATP viability), GAPF157 cells; conditions: FIG. 5
Description: as §1, with “model […]” for “model GAPF155”, “from GAPF157.” for “from GAPF155.”, “(FIG. 4” for “(FIG. 2”, “FIG. 5).” for “FIG. 3).”

Compound	response to drug in drug screening [1]	sensitivity of the tumor cells to the drug / anti-tumor activity [2]	sensitivity of the tumor cells to the drug / anti-tumor activity [3]	sensitivity of the tumor cells to the drug / anti-tumor activity [4]	sensitivity of the tumor cells to the drug / anti-tumor activity [5]
Nc1ccn([C@@H]2O[C@H](CO)[C@@H](O)C2(F)F)c(=O)n1 [gemcitabine]	well responded	–	–	–	–
Tegafur [S-1]	–	sensitive; also recorded: good anti-tumor activity	sensitive; also recorded: good anti-tumor activity	sensitive; also recorded: good anti-tumor activity	sensitive; also recorded: good anti-tumor activity
